Experimental data published in ChEMBL document CHEMBL3865816, “Design, synthesis and biological evaluation of novel azaspiro analogs of linezolid as antibacterial and antitubercular agents” (Eur J Med Chem, 2016).
In brackets after ≈: the same amount, converted by molar mass.

Experiments:
Assay type in all cases: functional
[1] = tested on: Pseudomonas aeruginosa; experiment: Antibacterial activity against Pseudomonas aeruginosa NCIM 2036 measured after 8 hrs by spectrophotometric method; conditions: NCIM 2036, 8 h
[2] = tested on: Staphylococcus aureus; experiment: Antibacterial activity against Staphylococcus aureus NCIM 2079 measured after 12 hrs by spectrophotometric method; conditions: NCIM 2079, 12 h
[3] = tested on: Escherichia coli; experiment: Antibacterial activity against Escherichia coli NCIM 2688 measured after 8 hrs by spectrophotometric method; conditions: NCIM 2688, 8 h
[4] = tested on: Bacillus subtilis; experiment: Antibacterial activity against Bacillus subtilis NCIM 2010 measured after 12 hrs by spectrophotometric method; conditions: NCIM 2010, 12 h
[5] = tested on: Mycobacterium tuberculosis; experiment: Antitubercular activity against active stage Mycobacterium tuberculosis H37Ra measured after 8 days by XTT assay; conditions: 192 h
[6] = tested on: Mycobacterium tuberculosis; experiment: Antitubercular activity against dormant stage Mycobacterium tuberculosis H37Ra measured after 12 days by XTT assay; conditions: 288 h
[7] = tested on: Escherichia coli; experiment: Antibacterial activity against Escherichia coli NCIM 2688 at 30 ug/ml measured after 8 hrs by spectrophotometric method; conditions: NCIM 2688, 8 h
[8] = tested on: Escherichia coli; experiment: Antibacterial activity against Escherichia coli NCIM 2688 at 10 ug/ml measured after 8 hrs by spectrophotometric method; conditions: NCIM 2688, 8 h
[9] = tested on: Escherichia coli; experiment: Antibacterial activity against Escherichia coli NCIM 2688 at 3 ug/ml measured after 8 hrs by spectrophotometric method; conditions: NCIM 2688, 8 h
[10] = tested on: Pseudomonas aeruginosa; experiment: Antibacterial activity against Pseudomonas aeruginosa NCIM 2036 at 30 ug/ml measured after 8 hrs by spectrophotometric method; conditions: NCIM 2036, 8 h
[11] = tested on: Pseudomonas aeruginosa; experiment: Antibacterial activity against Pseudomonas aeruginosa NCIM 2036 at 10 ug/ml measured after 8 hrs by spectrophotometric method; conditions: NCIM 2036, 8 h
[12] = tested on: Pseudomonas aeruginosa; experiment: Antibacterial activity against Pseudomonas aeruginosa NCIM 2036 at 3 ug/ml measured after 8 hrs by spectrophotometric method; conditions: NCIM 2036, 8 h
[13] = tested on: Staphylococcus aureus; experiment: Antibacterial activity against Staphylococcus aureus NCIM 2079 at 30 ug/ml measured after 12 hrs by spectrophotometric method; conditions: NCIM 2079, 12 h
[14] = tested on: Staphylococcus aureus; experiment: Antibacterial activity against Staphylococcus aureus NCIM 2079 at 10 ug/ml measured after 12 hrs by spectrophotometric method; conditions: NCIM 2079, 12 h
[15] = tested on: Staphylococcus aureus; experiment: Antibacterial activity against Staphylococcus aureus NCIM 2079 at 3 ug/ml measured after 12 hrs by spectrophotometric method; conditions: NCIM 2079, 12 h
[16] = tested on: Bacillus subtilis; experiment: Antibacterial activity against Bacillus subtilis NCIM 2010 at 30 ug/ml measured after 12 hrs by spectrophotometric method; conditions: NCIM 2010, 12 h
[17] = tested on: Bacillus subtilis; experiment: Antibacterial activity against Bacillus subtilis NCIM 2010 at 10 ug/ml measured after 12 hrs by spectrophotometric method; conditions: NCIM 2010, 12 h
[18] = tested on: Bacillus subtilis; experiment: Antibacterial activity against Bacillus subtilis NCIM 2010 at 3 ug/ml measured after 12 hrs by spectrophotometric method; conditions: NCIM 2010, 12 h
[19] = tested on: Mycobacterium tuberculosis; experiment: Antitubercular activity against dormant stage Mycobacterium tuberculosis H37Ra at 30 ug/ml measured after 12 days by XTT assay; conditions: 288 h
[20] = tested on: Mycobacterium tuberculosis; experiment: Antitubercular activity against dormant stage Mycobacterium tuberculosis H37Ra at 10 ug/ml measured after 12 days by XTT assay; conditions: 288 h
[21] = tested on: Mycobacterium tuberculosis; experiment: Antitubercular activity against dormant stage Mycobacterium tuberculosis H37Ra at 3 ug/ml measured after 12 days by XTT assay; conditions: 288 h

SMILES	IC50 [1] [µg/mL]	MIC [1] [µg/mL]	IC50 [2] [µg/mL]	MIC [2] [µg/mL]	IC50 [3] [µg/mL]	MIC [3] [µg/mL]	IC50 [4] [µg/mL]	MIC [4] [µg/mL]	IC50 [6] [µg/mL]	MIC [6] [µg/mL]	inhibition at 30 µg/mL [7] [%]	inhibition at 10 µg/mL [8] [%]	inhibition at 3 µg/mL [9] [%]	inhibition at 30 µg/mL [10] [%]	inhibition at 10 µg/mL [11] [%]	inhibition at 3 µg/mL [12] [%]	inhibition at 30 µg/mL [13] [%]	inhibition at 10 µg/mL [14] [%]	inhibition at 3 µg/mL [15] [%]	inhibition at 30 µg/mL [16] [%]	other results
CC(=O)OCC(=O)NC[C@H]1CN(c2ccc(N3CC4(COC4)C3)c(F)c2)C(=O)O1	> 100	> 100	0.75 (≈ 1.84 µM)	8.4 (≈ 20.6 µM)	> 100	> 100	> 100	> 100	6.69 (≈ 16.4 µM)	10.6 (≈ 26.1 µM)	89.1	63.9	49.4	58.3	42.8	22.8	98.2	93.9	82.5	99.3	IC50 [5]: 3.24 µg/mL (≈ 7.95 µM); MIC [5]: 7.8 µg/mL (≈ 19.1 µM); inhibition at 10 µg/mL [17]: 73.6%; inhibition at 3 µg/mL [18]: 43.6%; inhibition at 30 µg/mL [19]: 88.9%; inhibition at 10 µg/mL [20]: 4.03%; inhibition at 3 µg/mL [21]: -16.6%
O=C(NC[C@H]1CN(c2ccc(N3CC4(COC4)C3)c(F)c2)C(=O)O1)c1ccno1	0.51 (≈ 1.27 µM)	2.57 (≈ 6.39 µM)	0.88 (≈ 2.19 µM)	2.05 (≈ 5.09 µM)	0.71 to 0.72 (≈ 1.76 to 1.79 µM)	4.56 to 4.6 (≈ 11.3 to 11.4 µM)	0.49 (≈ 1.22 µM)	2.35 (≈ 5.84 µM)	9.58 (≈ 23.8 µM)	21.2 (≈ 52.8 µM)	99.9	93.3	88.3	98.9	94.9	90.8	98.5	98.2	95.1	100	IC50 [5]: 6.4 µg/mL (≈ 15.9 µM); MIC [5]: 10.9 µg/mL (≈ 27.1 µM); inhibition at 10 µg/mL [17]: 97.3%; inhibition at 3 µg/mL [18]: 90.5%; inhibition at 30 µg/mL [19]: 95.4%; inhibition at 10 µg/mL [20]: 18.2%; inhibition at 3 µg/mL [21]: 4.35%
NC[C@H]1CN(c2ccc(N3CC4(COC4)C3)c(F)c2)C(=O)O1	> 100	> 100	0.84 to 0.843 (≈ 2.73 to 2.74 µM)	3.38 (≈ 11 µM)	0.57 (≈ 1.85 µM)	4.05 (≈ 13.2 µM)	> 100	> 100	3.46 (≈ 11.3 µM)	11.3 (≈ 36.9 µM)	99.2	96.8	88	56.9	53.7	49.2	98.9	94.3	86.5	48.8	IC50 [5]: 2.8 µg/mL (≈ 9.11 µM); MIC [5]: 18.3 µg/mL (≈ 59.4 µM); inhibition at 10 µg/mL [17]: 43.3%; inhibition at 3 µg/mL [18]: 36.4%; inhibition at 30 µg/mL [19]: 90.9%; inhibition at 10 µg/mL [20]: 75.2%; inhibition at 3 µg/mL [21]: 15.2%
CC(=O)NC[C@H]1CN(c2ccc(N3CC4(COC4)C3)c(F)c2)C(=O)O1	0.58 (≈ 1.66 µM)	6.4 (≈ 18.3 µM)	0.53 (≈ 1.52 µM)	2.9 (≈ 8.3 µM)	> 100	> 100	0.65 (≈ 1.86 µM)	3.46 (≈ 9.9 µM)	2.07 (≈ 5.93 µM)	3.1 (≈ 8.87 µM)	28.8	17.4	3.06	98.5	91.9	85.5	99.5	91.8	90.4	100	IC50 [5]: 1.56 µg/mL (≈ 4.47 µM); MIC [5]: 2.55 µg/mL (≈ 7.3 µM); inhibition at 10 µg/mL [17]: 95.4%; inhibition at 3 µg/mL [18]: 88.8%; inhibition at 30 µg/mL [19]: 95.2%; inhibition at 10 µg/mL [20]: 94.7%; inhibition at 3 µg/mL [21]: 15.1%
CC(=O)NC[C@H]1CN(c2ccc(N3CCOCC3)c(F)c2)C(=O)O1 [LINEZOLID]	0.49 (≈ 1.45 µM)	1.31 (≈ 3.88 µM)	0.42 (≈ 1.24 µM)	1.13 (≈ 3.35 µM)	0.49 (≈ 1.45 µM)	1.15 (≈ 3.41 µM)	0.64 (≈ 1.9 µM)	1.8 (≈ 5.34 µM)	0.71 (≈ 2.1 µM)	1.25 (≈ 3.71 µM)	100	99.8	99.3	99.9	99	99.2	99.1	99.5	99.5	99.8	IC50 [5]: 0.8 µg/mL (≈ 2.37 µM); MIC [5]: 1.31 µg/mL (≈ 3.88 µM); inhibition at 10 µg/mL [17]: 99.4%; inhibition at 3 µg/mL [18]: 98.9%; inhibition at 30 µg/mL [19]: 95.5%; inhibition at 10 µg/mL [20]: 96.6%; inhibition at 3 µg/mL [21]: 84%
CC(=O)NC[C@H]1CN(c2ccc(C3=C[C@H]4CC[C@@H](C3)N4C(=O)OC(C)(C)C)c(F)c2)C(=O)O1	0.67 (≈ 1.46 µM)	15.1 (≈ 32.8 µM)	0.74 (≈ 1.61 µM)	2.95 (≈ 6.42 µM)	0.57 (≈ 1.24 µM)	3.66 (≈ 7.96 µM)	0.55 (≈ 1.2 µM)	5.67 (≈ 12.3 µM)	10.8 (≈ 23.6 µM)	20.5 (≈ 44.6 µM)	98.7	94.4	89.2	93.9	88.3	83.8	99.1	97.9	90.5	99.1	IC50 [5]: 12.3 µg/mL (≈ 26.8 µM); MIC [5]: 21.4 µg/mL (≈ 46.6 µM); inhibition at 10 µg/mL [17]: 97.3%; inhibition at 3 µg/mL [18]: 85.7%; inhibition at 30 µg/mL [19]: 94.2%; inhibition at 10 µg/mL [20]: 79.6%; inhibition at 3 µg/mL [21]: 34.8%
O=C(NC[C@H]1CN(c2ccc(N3CC4(COC4)C3)c(F)c2)C(=O)O1)c1cccnc1	> 100	> 100	1.03 (≈ 2.5 µM)	18.3 (≈ 44.3 µM)	0.67 (≈ 1.62 µM)	8.33 (≈ 20.2 µM)	> 100	> 100	> 100	> 100	94.8	90.5	84.8	56.3	49.5	40.9	96.2	85.9	78.2	99.2	inhibition at 10 µg/mL [17]: 77.1%; inhibition at 3 µg/mL [18]: 60.8%; inhibition at 30 µg/mL [19]: 63.1%; inhibition at 10 µg/mL [20]: 5.21%; inhibition at 3 µg/mL [21]: 3.2%
O=C1O[C@@H](CNS(=O)(=O)c2cc([N+](=O)[O-])ccc2Cl)CN1c1ccc(N2CC3(COC3)C2)c(F)c1	> 100	> 100	> 100	> 100	> 100	> 100	> 100	> 100	> 100	> 100	49.6	15.8	2.37	68.6	38.6	-6.17	89.5	55	42	88.4	inhibition at 10 µg/mL [17]: 62.1%; inhibition at 3 µg/mL [18]: 47%; inhibition at 30 µg/mL [19]: 59.6%; inhibition at 10 µg/mL [20]: 29.2%; inhibition at 3 µg/mL [21]: 24.4%
